Our source for the Ki values is US7161016B1, “Cannabimimetic lipid amides as useful medications” (University of Connecticut, priority 1998, dated 2007).

Read-outs that look alike come from different tables or passages of the source.

The target in assay [1] is T1, CB1 cannabinoid receptor (Rattus norvegicus, UniProt P20272).
T1 construct: membranes were prepared from rat forebrain membranes; from tissue; host or cells: rat forebrain membranes
Briefly: CB1 receptor binding assay ([3H]CP-55,940 displacement), with and without PMSF. The note with it: rat forebrain membranes. The protocol: It is known that the enzymatic action of anandamide amidase can be moderated or prevented in vitro by the inclusion of phenylmethanesulfonyl fluoride (PMSF). PMSF functions as a nonselective protease inhibitor. Thus the ligand binding determinations for the CB1 receptor were carried out in the presence and absence of PMSF, to obtain both CB1 receptor binding affinity and a relative measure of the analog's metabolic stability. The binding affinities (Ki) are expressed in nanomoles (nM).
For the CB1 receptor binding studies, membranes were prepared from rat forebrain membranes according to the procedure of P. R. Dodd et al, A Rapid Method for Preparing Synaptosomes: Comparison with Alternative Procedures, Brain Res., 107–118 (1981). The binding of the novel analogues to the CB1 cannabinoid receptor was assessed as described in W. A. Devane et al, Determination and Characterization of a Cannabinoid Receptor in a Rat Brain, Mol. Pharmacol., 34, 605–613 (1988) and A. Charalambous et al, 5′-azido Δ^8-THC: A Novel Photoaffinity Label for the Cannabinoid Receptor, J. Med. Chem., 35, 3076–3079 (1992) with the following changes. The above articles are incorporated by reference herein.
Membranes, previously frozen at −80° C., were thawed on ice. To the stirred suspension was added three volumes of 25 mM Tris-HCl buffer, 5 mM MgCl2 and 1 mM EDTA, pH 7.4 (TME) containing 150 μM PMSF (made fresh in 2-propanol as a 100 mM stock). The suspension was incubated at 4° C., and after 15 min a second addition of PMSF stock brought the concentration to 300 μM PMSF; then the mixture was incubated for another 15 min. At the end of the second 15-min incubation, the membranes were pelleted and washed three times with TME to remove un-reacted PMSF.
(§1) The treated membranes Were subsequently used in the binding assay described below. Approximately 30 μg of PMSF-treated membranes were incubated in silanized 96-well microtiter plate with TME containing 0.1% essentially fatty acid-free bovine serum albumin (BSA), 0.8 nM [^3H] […] The samples were filtered using Packard Filtermate 196 and Whatman GF/C filterplates and washed with wash buffer (TME) containing 0.5% BSA. Radioactivity was detected using MicroScint 20 scintillation cocktail added directly to the dried filterplates, and the filterplates were counted using a Packard Instruments Top-Count. Nonspecific binding was assessed using 100 nM CP-55,940. Data collected from three independent experiments performed with duplicate determinations was normalized between 100% and 0% specific binding for [^3H] CP-55,940, determined using buffer and 100 nM CP-55,940. The normalized data was analyzed using a 4-parameter nonlinear logistic equation to yield IC50 values.
The CB1 ligand binding determinations in the absence of PMSF were performed in a similar manner to the above test, except without the use of PMSF.

Assay [2] addresses T2, CB2 receptor (Mus musculus, UniProt P47936).
T2 construct: membranes were prepared from frozen mouse spleen; from tissue; host or cells: frozen mouse spleen membranes
Briefly: CB2 receptor binding assay ([3H]CP-55,940 displacement), without PMSF. The note with it: mouse spleen membranes. Here is the method: as §1
For the CB2 receptor binding studies, membranes were prepared from frozen mouse spleen essentially according to the procedure of P. R. Dodd et al, A Rapid Method for Preparing Synaptosomes: Comparison with Alternative Procedures, Brain Res., 226, 107–118 (1981). Silanized centrifuge tubes were used throughout to minimize receptor loss due to adsorption. The CB2 binding assay was conducted in the same manner as for the CB1 binding assay except the assays were conducted without PMSF. […] The binding affinities (Ki) are expressed in nanomoles (nM).

Where [3] appears, read: PMSF-treated, read-out: KI (CB1), with PMSF.
The mark [4] stands for this setting: without PMSF (anandamide amidase active), read-out: KI (CB1), without PMSF.

T2 sequence (P47936 whole entry): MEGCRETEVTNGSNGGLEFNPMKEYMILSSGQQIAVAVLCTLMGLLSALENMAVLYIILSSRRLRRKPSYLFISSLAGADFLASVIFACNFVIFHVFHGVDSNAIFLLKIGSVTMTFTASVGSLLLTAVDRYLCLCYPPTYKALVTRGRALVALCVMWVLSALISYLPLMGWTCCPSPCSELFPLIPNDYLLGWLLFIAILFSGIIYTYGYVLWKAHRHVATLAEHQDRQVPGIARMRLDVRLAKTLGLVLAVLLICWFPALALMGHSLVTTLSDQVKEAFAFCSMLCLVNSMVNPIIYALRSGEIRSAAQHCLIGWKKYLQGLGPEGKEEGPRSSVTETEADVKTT
T1 sequence (P20272 whole entry): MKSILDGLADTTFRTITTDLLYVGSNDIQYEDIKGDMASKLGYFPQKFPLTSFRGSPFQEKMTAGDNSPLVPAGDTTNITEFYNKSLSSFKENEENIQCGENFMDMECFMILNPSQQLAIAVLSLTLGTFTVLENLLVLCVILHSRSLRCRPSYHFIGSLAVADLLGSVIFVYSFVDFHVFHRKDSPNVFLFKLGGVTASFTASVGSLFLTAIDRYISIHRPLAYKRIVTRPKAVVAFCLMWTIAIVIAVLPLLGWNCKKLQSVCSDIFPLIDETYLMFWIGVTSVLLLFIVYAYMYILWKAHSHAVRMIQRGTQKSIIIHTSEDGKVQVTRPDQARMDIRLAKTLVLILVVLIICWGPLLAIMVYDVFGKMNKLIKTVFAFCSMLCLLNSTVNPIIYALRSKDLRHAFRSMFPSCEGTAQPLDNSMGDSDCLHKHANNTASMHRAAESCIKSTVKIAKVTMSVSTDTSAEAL

As a reminder, the Ki is a measure of affinity in units of concentration, obtained from inhibition or displacement. Regarding `CCCCC/C=C\C/C=C\C/C=C\C/C=C\CCCCNC(=O)CCO` [Analog 10, N-(3-Hydroxypropionyl)arachidonylamine], the Ki in assay [1] (setting [3]) stood at 115 nM; in assay [1] (setting [4]), 134 nM; in assay [2], 3540 nM.

As to `CCCCC/C=C\C/C=C\C/C=C\C/C=C\CCCC(=O)N[C@H](C)CF` [Analog 1, N-(2-Fluoro-1R-(methylethyl)arachidonylamide)], the Ki is 1.18 nM in assay [1] (setting [3]), 10.1 nM in assay [1] (setting [4]) and 785 nM in assay [2].

Consider `C=CCNC(=O)CCC/C=C\C/C=C\C/C=C\C/C=C\CCCCC` [Analog 7, N-Allylarachidonylamide], for which the Ki in assay [1] (setting [3]) was 9.91 nM; in assay [1] (setting [4]), 2980 nM; in assay [2] it was 226 nM.

For `CCCCCC=CCC=CCC=CCC=CCCCC(=O)NCCCCl` [Analog 6, N-(3-Chloropropyl)arachidonylamide], the Ki in assay [1] (setting [3]) turned out to be 25.6 nM; in assay [1] (setting [4]) it was 387 nM; in assay [2] it was 193 nM.

`CCCCCC=CCC=CCC=CCC=CCCCC(=O)NCCCl` [Analog 5, N-(2-Chloroethyl)arachidonylamide]: the Ki in assay [1] (setting [3]) was 5.29 nM; in assay [1] (setting [4]), 3400 nM; in assay [2] it was 195 nM.

Consider `CCCCCC=CCC=CCC=CCC=CCCCC(=O)NCC(F)(F)F` [Analog 9, N-(2,2,2-Trifluroethyl) arachidonylamide], for which the Ki in assay [1] (setting [3]) came to 36.2 nM; in assay [1] (setting [4]), 2380 nM; in assay [2], 718 nM.

As to `CCCCC/C=C\C/C=C\C/C=C\C/C=C\CCCCNC(=O)COC(C)=O` [Analog 11, N-(2-Acetoxyacetyl)arachidonylamine], the Ki in assay [1] (setting [3]) amounted to 421 nM; in assay [1] (setting [4]) it was 419 nM.

As to `CCCCC/C=C\C/C=C\C/C=C\C/C=C\CCCCNC(=O)CO` [Analog 12], the Ki in assay [1] (setting [3]) came out at 20 nM; in assay [1] (setting [4]), 23 nM.

For the molecule `CCCCC/C=C\C/C=C\C/C=C\C/C=C\CCCC(=O)N[C@H](C)CN=[N+]=[N-]` (racemic) [Analog 4, (R)-(+−)-Arachidonyl-1′-azido-2′-propylamide], the figures for the Ki in assay [1] (setting [3]), in assay [1] (setting [4]) and in assay [2] were 12.7 nM, 25.6 nM and 1230 nM, respectively.

With `C#CCNC(=O)CCC/C=C\C/C=C\C/C=C\C/C=C\CCCCC` [Analog 8, N-Propargylarachidonylamide], the results for the Ki in assay [1] (setting [3]), in assay [1] (setting [4]) and in assay [2] were 10.8 nM, 4900 nM and 290 nM, respectively.

`CCCCC/C=C\C/C=C\C/C=C\C/C=C\CCCC(=O)N[C@@H](C)CF` [Analog 2]: the figures for the Ki in assay [1] (setting [3]), in assay [1] (setting [4]) and in assay [2] were 0.91 nM, 56.3 nM and 1340 nM, respectively.
